Source: patent US12162934B2, “Gremlin-1 antagonist for the prevention and treatment of cancer” (UCB BIOPHARMA SRL, priority 2018, dated 2024)

Tests used:
[1] = test system: MDA-MB-231 human breast cancer cells; experiment: MDA-MB-231 breast cancer model in NSG mice (BLI); assay type: in vivo; details: vs AbA33, p>0.05
Description: MDA-MB-231: 5-week old NOD/SCiD/gamma (NSG) immunocompromised mice were subcutaneously (s.c) administered two 30 mg/kg doses of anti-Grem1 antibody UCB6114 or IgG control, AbA33, the week prior to tumour cell inoculation. 1×10^5 luciferase expressing MDA-MB-231 human breast cancer cells were injected systemically via the CA.
Treatment continued twice weekly for the duration of the study. At weekly intervals, mice were administered 150 mg/kg luciferin intraperitoneally (i.p) and imaged using the Xenogen IVIS Bioluminescence Imaging System, and tumour burden was quantitated using Living Image software. The study ended on day 13 and day 22 post-tumour cell injection for the PyMT-B01 and MDA-MB-231 models respectively, according to animal ethics requirements. Organs were dissected upon culling animals and BLI imaged ex vivo for analysis of tumour metastasis.

[2] = test system: PC-3 prostate cancer cells; experiment: PC-3 prostate cancer model in NSG mice (BLI); assay type: in vivo, human; details: vs AbA33
Description: The PC-3 human prostate cancer cell line was obtained from ATCC (Manassas, VA, USA). The cell line expresses luciferase produced by retroviral expression of the SFG-NES-TGL vector (Ponomarev, V., et al. 2004). Cancer cells were cultured in RPMI1640 (Life Technologies, Australia) supplemented with 10% foetal bovine serum (FBS, Life Technologies, Australia), 100 IU/mL penicillin (Life Technologies, Australia), 100 μg/mL streptomycin (Life Technologies, Australia) and 25 mM HEPES (Life Technologies, Australia) at 37° C. in a 5% CO2 humidified atmosphere.
5-week old NOD.Cg-Prkd^scid Il2rg^tm1Wjl/SzJ (NSG) immunocompromised mice were subcutaneously (s.c) administered two 30 mg/kg doses of anti-Grem1 antibody (UCB6114) or IgG control, AbA33, the week prior to tumour cell inoculation. 5×10^5 luciferase expressing PC-3 […] prostate cancer cells were injected systemically via the caudal artery (CA).
Antibody treatment continued twice weekly for the duration of the study. A t weekly intervals, mice were administered 150 mg/kg luciferin intraperitoneally (i.p) and imaged using the Xenogen IVIS Bioluminescence Imaging System, and tumour burden was quantitated using Living Image software (PerkinElmer, MA, USA). At the end of each study, organs were dissected upon culling animals and BLI imaged ex vivo for analysis of tumour metastasis.

MDA-MB-231-TXSA cells = experiment: Proliferation assay of MDA-MB-231-TXSA cells in hypoxia (luciferase); assay type: cell-based, human; details: rhGrem1 0-1000 ng/ml
Description: Luciferase expressing MDA-MB-231-TXSA cells were seeded in 96-well microtiter plates (1×10^4 cells/well). Cells were cultured either under normoxic or hypoxic conditions and allowed to adhere overnight. Cells were then serum starved for 6 hrs before treatment with increasing concentrations of rhGrem1 protein (0-1000 ng/ml). At 24 and 48 hr time points, luciferase expression was evaluated and used as a surrogate measure of cell number. Briefly, cells were washed in 1×PBS, and subsequently lysed in cell culture lysis buffer (Promega). Luciferase Assay Reagent (5 mM MgCl2, 30 mM HEPES, 150 μM ATP, […] Coenzyme A and 150 μg/mL D-luciferin (Biosynth AG, Staad, Switzerland)) was added to cell lysates, and luminescence was quantified immediately using a luminometer plate reader (Wallac 3000).

With “UCB6114: novel anti-Grem1 neutralising monoclonal antibody” as the molecule, how does the “Mean tumour burden (BLI)” value ([1]; day 22) read?
The value was “lower”.

And the “Mean tumour burden for lung metastasis (ex vivo BLI)” value [1]?
Its value is “reduction in mean tumour burden”.

And the “Whole animal tumour burden (BLI)” value ([2]; 30 mg/kg s.c. twice weekly)?
The value was “significant reduction”.

What about the “Hindlimb tumour burden (ex vivo BLI)” value [2] of the same molecule?
The value was “downward trend”.

And the “Liver tumour burden (ex vivo BLI)” value [2]?
Its value is “significant reduction”.

And the “Lung tumour burden (ex vivo BLI)” value [2]?
Its value is “downward trend”.

B1: rhGrem1: rhGrem1 protein used to stimulate breast cancer cells (protein)
chain: KKKGSQGAIPPPDKAQHNDSEQTQSPQQPGSRNRGRGQGRGTAMPGEEVLESSQEALHVTERKYLKRDWCKTQPLKQTIHEEGCNSRTIINRFCYGQCNSFYIPRHIRKEEGSFQSCSFCKPKKFTTMMVTLNCPELQPPTKKKRVTRVKQCRCISIDLD
Which results are given for B1?
Maximal increase in MDA-MB-231-TXSA proliferation, hypoxic compared to normoxic conditions (MDA-MB-231-TXSA cells; 24 hr): 1.5 fold; Maximal increase in MDA-MB-231-TXSA proliferation, hypoxic compared to normoxic conditions (MDA-MB-231-TXSA cells; 48 hr): 1.7 fold
